Patent publication US9556437B2, “FAT1 gene in cancer and inflammation” (DEPARTMENT OF BIOTECHNOLOGY (DBT), priority 2012, dated 2017)

Experiments:
U87MG cells [1] = assay: In vitro Scratch Assay of cell migration; type: cell-based, human
Experimental: FIGS. 14A to 14D: Effect of NS-398 and FAT1 knockdown simultaneously on Cell Migration by In-vitro Scratch Assay. The in vitro Scratch Assay was performed at 72 hours after culturing cells as follows: At Day 0, 5,000 U87MG cells are plated per well of a 96 well plate. […] (C) Assay of cell migration by the Modified Boyden Chamber Assay under conditions of normoxia and hypoxia. (D) Quantitation of data from (C).
The Scratch Assay is performed at 72 hours after treatment. A scratch is made on the culture surface using a sterile 10 μl tip and cells were allowed to grow. Images were captured after every 3 hrs to monitor the closure of the wound in the culture surface for next 24 hrs.

[2] = tested on: colon, esophageal and pancreatic carcinoma cell lines; conditions: Tsujii 1998, Zimmermann 1999, Molina 1999; cited from earlier work
[3] = tested on: colorectal and lung carcinoma cell lines; conditions: Elder 1997, Liu 1998; cited from earlier work
COX-2 promoter = COX-2 promoter luciferase assay; type: cell-based, human; conditions: U87MG
Experimental: AP-1 and COX-2 Promoter Luciferase Assay: U87MG cells (40000 cells/well) were plated in 6-well plates in triplicate on day zero. On day 1, cells were transfected with siFAT1 and siControl. On day 2 cells were transiently transfected with 4×AP-1-luciferase reporter plasmids as described previously. Cells were transfected with 1 μg of AP-17× luciferase reporter plasmid, along with 50 ng of pRL-TK (Renilla luciferase) control plasmid using LIPOFECTAMINE2000 as the transfection reagent. After 48 hrs, the cells were lysed by 1× passive-lysis-buffer (Promega, Madison, Wis., USA) and assayed for luciferase activity as previously described. For COX-2 luciferase assay U87MG cells were transfected with siFAT1 and siControl on day 1 and after 4 hrs incubation were treated with 10 μM SR11302. On day2 cells were transiently transfected with COX-2 reporter plasmid and again treated with 10 μM SR11302. After 48 hrs, the cells were assayed for luciferase activity.

U87MG cells [4] = assay: Toxicity of SR11302 to cells; type: cell-based, human; conditions: 10 μM
Experimental: FIG. 11: Dose response curve of SR11302; U87MG cells were treated with increasing concentration of SR11302 from 0.1 μM to 10 μM.

| dose response of COX-2 luciferase activity (COX-2 promoter; 0.1 μM to 10 μM) | decrease in COX-2 luciferase activity (COX-2 promoter; vs siControl+DMSO, SR11302 10 μM, 48 hrs) [fold] | SMILES | inhibition of cell migration (U87MG cells [1]; Scratch Assay at 72 hours after treatment) | effect on migration under hypoxic versus normoxic culture (U87MG cells [1]; hypoxic conditions) | migration ability of cells (U87MG cells [1]; scratch and modified Boyden chamber assays, normoxic or hypoxic conditions (FIG. 14)) | growth of carcinoma cell lines [2] | apoptosis [3] | proliferation [3] | toxicity to the cells (U87MG cells [4]) |
| --- | --- | --- | --- | --- | --- | --- | --- | --- | --- |
| – | – | CS(=O)(=O)Nc1ccc([N+](=O)[O-])cc1OC1CCCCC1 [NS398] | about 70% | more pronounced | reduced | growth-inhibitory effects | induce apoptosis | inhibit proliferation | – |
| dose dependent decrease | 5 | CC1=C(/C=C/C(=C/C=C/C(C)=C/C(=O)O)c2ccc(C)cc2)C(C)(C)CCC1 [SR11302] | – | – | – | – | – | – | No toxicity |
